Data taken from patent publication US4603217A, “Ester substituted alkyl-2-(2,6-dichloroanilino)phenyl acetates” (priority 1983, dated 1986).

Assays:
[1] = test system: carrageenan edema; assay: inhibition test of carrageenan edema employing a foot-pad edema method; type: in vivo, male Wister rats; conditions: for ED50: Rattus norvegicus, male Wister rats, foot-pad edema, read-out: ED50 for inhibition for carrageenan edema; for anti-inflammatory activity compared with DF: relative to DF
Description: Anti-inflammatory action was investigated according to the method of Winter et al [cf. Pro. Soc. Exp. Biol. Med., 111, 544 (1962)] by the inhibition test of carrageenan edema employing a foot-pad edema method using carrageenan as an irritating agent and male Wister rats weighing 130 to 170 g.

[2] = Gastrointestinal ulcer formation action (gastric ulceration); conditions: rat, po
Method: Gastrointestinal ulcer formation action, which is a principal side effect of an acid anti-inflammatory drug, was investigated according to the method of Okabe et al [cf. […] The compounds of the present invention, IM, DF and acemethacin were suspended in 5% Tween-80 solution and administered orally 1 ml/100 g body weight to the rats, respectively. At 6 hrs after the administration, the state of glandstomach was observed by means of a dissecting microscope whether the ulcer having a diameter more than 1 mm was generated or not.

[3] = in vivo; conditions: mouse, po
[4] = Rate of hydrolysis in rat plasma; type: in vitro ADME; conditions: in 1 ml of plasma rat (37° C., incubation for 1 hr)
Method: **in 1 ml of plasma rat (37° C., incubation for 1 hr)

[5] = test system: ultraviolet erythema; assay: inhibition action for ultraviolet erythema; type: in vivo, male Hartley guinea pigs; set-up: 2 hs after the irradiation, Average ± standard error / 3 hs after the irradiation, Average ± standard error / 5 hs after the irradiation, Average ± standard error: scale not given here; 2 hs after the irradiation, Rate for inhibition / 3 hs after the irradiation, Rate for inhibition / 5 hs after the irradiation, Rate for inhibition: unit not given here; conditions: for 2 hs after the irradiation, Average ± standard error / 2 hs after the irradiation, Rate for inhibition: 2 hs after irradiation; for 2 hs after the irradiation, Average ± standard error / 2 hs after the irradiation, Rate for inhibition / 3 hs after the irradiation, Average ± standard error / 3 hs after the irradiation, Rate for inhibition / 5 hs after the irradiation, Average ± standard error / 5 hs after the irradiation, Rate for inhibition: guinea pigs; for 3 hs after the irradiation, Average ± standard error / 3 hs after the irradiation, Rate for inhibition: 3 hs after irradiation; for 5 hs after the irradiation, Average ± standard error / 5 hs after the irradiation, Rate for inhibition: 5 hs after irradiation; for inhibition effect for ultraviolet erythema compared with IM and DF: relative to IM and DF
Method: With respect to Compounds 1 to 3, 15 and 21 which are especially useful as an anti-inflammatory drug, IM and DF, inhibition action for ultraviolet erythema was investigated according to the method of Adames et al [cf. Nature, London, 181, 773 (1958)] using guinea pigs as follows: Male Hartley guinea pigs weighing 250 to 350 g were shaved at their sides the day before and two hrs before the ultraviolet irradiation. To the guinea pigs were administered orally Compounds 1 to 3, 15 and 21, IM and DF in amounts as described in Table 2, respectively. To the control group was administered orally only Tween-80. At 1 hr after the time of administration, the guinea pigs were irradiated at their shaved sides by ultraviolet beam for 40 seconds.
The reaction of the ultraviolet erythema was evaluated at 2 hrs, 3 hrs and 5 hrs after irradiation according to the method of Winder et al [cf. Arch. Int. Pharmacodyn., 116, 261 (1958)]. […] Compounds 1 and 2 show a duration of the pharmacological effect over 5 hrs, contrary to that IM has a duration of 2 hrs.

Row | SMILES | ED50 [1] [mg/kg] | LD50 [3] [mg/kg] | metabolised at 1 h [4] [%] | TD50 at 6 h [2] [mg/kg] | further results
1 | COc1ccc2c(c1)c(CC(=O)OCC(=O)O)c(C)n2C(=O)c1ccc(Cl)cc1 [Acemethacin, acemethacin, reference compound] | 8.3 | 45 | 4.2 |  | TD50 at 6 h ([2]; in vivo): 17.5 mg/kg
2 | CC(=O)OCCOC(=O)Cc1ccccc1Nc1c(Cl)cccc1Cl [Compound 16, 2-(Acetoxy)ethyl-2-(2,6-dichloroanilino)-phenylacetate] | 20 | 610 | 93.7 |  | anti-inflammatory activity compared with DF [1]: almost equal anti-inflammatory activity to DF
3 | CC(C)=CC(=O)OCOC(=O)Cc1ccccc1Nc1c(Cl)cccc1Cl [Compound 14, 3,3-Dimethylacryloyloxymethyl-2-(2,6-dichloroanilino)phenylacetate] | < 30 | 455 | 83.4 | 30 | 
4 | COc1ccc2c(c1)c(CC(=O)OCCOC(=O)C=C(C)C)c(C)n2C(=O)c1ccc(Cl)cc1 [Compound 5, 2-(3,3-Dimethylacryloyloxy)ethyl[1-(p-chlorobenzoyl)-5-methoxy-2-methyl-3-indolyl]acetate] | 15 | 62 | 75.3 | 40 | 
5 | COc1ccc2c(c1)c(CC(=O)OCCOC(=O)C=C(C)CCC=C(C)C)c(C)n2C(=O)c1ccc(Cl)cc1 [Compound 7, 2-(3,7-Dimethyl-2,6-octadienoyloxy)ethyl[1-(p-chlorobenzoyl)-5-methoxy-2-methyl-3-indolyl]acetate] | > 20 | 780 | 60.5 | > 20 | 
6 | CC=CC=CC(=O)OCOC(=O)Cc1ccccc1Nc1c(Cl)cccc1Cl [Compound 15, 2,4-Hexadienoyloxymethyl-2-(2,6-dichloroanilino)phenylacetate] | 20 | 500 | 80.5 |  | anti-inflammatory activity compared with DF [1]: almost equal anti-inflammatory activity to DF; 2 hs after the irradiation, Average ± standard error ([5]; 3 mg/kg orally): 1.17 ± 0.167; 2 hs after the irradiation, Rate for inhibition ([5]; 3 mg/kg orally): 56.2; 3 hs after the irradiation, Average ± standard error ([5]; 3 mg/kg orally): 2.0 ± 0.258; 3 hs after the irradiation, Rate for inhibition ([5]; 3 mg/kg orally): 29.3; 5 hs after the irradiation, Average ± standard error ([5]; 3 mg/kg orally): 3.00 ± 0; 5 hs after the irradiation, Rate for inhibition ([5]; 3 mg/kg orally): 0; 2 hs after the irradiation, Average ± standard error ([5]; 10 mg/kg orally): 0.67 ± 0.211; 2 hs after the irradiation, Rate for inhibition ([5]; 10 mg/kg orally): 74.9; 3 hs after the irradiation, Average ± standard error ([5]; 10 mg/kg orally): 2.3 ± 0.333; 3 hs after the irradiation, Rate for inhibition ([5]; 10 mg/kg orally): 18.7; 5 hs after the irradiation, Average ± standard error ([5]; 10 mg/kg orally): 2.83 ± 0.167; 5 hs after the irradiation, Rate for inhibition ([5]; 10 mg/kg orally): 0; inhibition effect for ultraviolet erythema compared with IM and DF [5]: equal inhibition effect for ultraviolet erythema to that of IM and DF
7 | CC=CC=CC(=O)OC(C)OC(=O)Cc1c(C)n(C(=O)c2ccc(Cl)cc2)c2ccc(OC)cc12 (stereo not shown) [Compound 12, 1-(2,4-Hexadienoyloxy)ethyl[1-(p-chlorobenzoyl)-5-methoxy-2-methyl-3-indolyl]acetate] | > 20 | 640 | 80.4 | > 20 | 
8 | CC(C)=CC(=O)OC(C)OC(=O)Cc1ccccc1Nc1c(Cl)cccc1Cl (stereo not shown) [Compound 20, 1-(3,3-Dimethylacryloyloxy)ethyl-2-(2,6-dichloroanilino)phenylacetate] | 20 | 460 | 80.3 | 30 | anti-inflammatory activity compared with DF [1]: almost equal anti-inflammatory activity to DF
9 | COc1ccc2c(c1)c(CC(=O)OC(C)OC(=O)C=C(C)C)c(C)n2C(=O)c1ccc(Cl)cc1 (stereo not shown) [Compound 11, 1-(3,3-Dimethylacryloyloxy)ethyl[1-(p-chlorobenzoyl)-5-methoxy-2-methyl-3-indolyl]acetate] | 15 | 45 | 85.4 | 10 | 
10 | C/C=C/C(=O)OCCOC(=O)Cc1c(C)n(C(=O)c2ccc(Cl)cc2)c2ccc(OC)cc12 [Compound 4] | 15 | 85 | 83 | 40 | 
11 | CCC(=O)OC(C)OC(=O)Cc1c(C)n(C(=O)c2ccc(Cl)cc2)c2ccc(OC)cc12 (stereo not shown) [Compound 9, 1-(Propionyloxy)ethyl[1-(p-chlorobenzoyl)-5-methoxy-2-methyl-3-indolyl]acetate] | 6 | 65 | 97.3 | 20 | 
12 | C/C=C/C(=O)OC(C)OC(=O)Cc1ccccc1Nc1c(Cl)cccc1Cl (stereo not shown) [Compound 19, 1-(Crotonoyloxy)ethyl-2-(2,6-dichloroanilino)phenylacetate] | < 30 | 380 | 86 | 30 | 
13 | CC=CC=CC(=O)OCCOC(=O)Cc1c(C)n(C(=O)c2ccc(Cl)cc2)c2ccc(OC)cc12 [Compound 6, 2-(2,4-Hexadienoyloxy)ethyl[1-(p-chlorobenzoyl)-5-methoxy-2-methyl-3-indolyl]acetate] | 13 | 85 | 69 | 40 | 
14 | CC=CC=CC(=O)OC(C)OC(=O)Cc1ccccc1Nc1c(Cl)cccc1Cl (stereo not shown) [Compound 21, 1-(2,4-Hexadienoyloxy)ethyl-2-(2,6-dichloroanilino)phenylacetate] | 30 | 790 | 78.2 | > 80 | 2 hs after the irradiation, Average ± standard error ([5]; 3 mg/kg orally): 1.33 ± 0.211; 2 hs after the irradiation, Rate for inhibition ([5]; 3 mg/kg orally): 50.2; 3 hs after the irradiation, Average ± standard error ([5]; 3 mg/kg orally): 3.00 ± 0; 3 hs after the irradiation, Rate for inhibition ([5]; 3 mg/kg orally): 0; 5 hs after the irradiation, Average ± standard error ([5]; 3 mg/kg orally): 3.00 ± 0; 5 hs after the irradiation, Rate for inhibition ([5]; 3 mg/kg orally): 0; 2 hs after the irradiation, Average ± standard error ([5]; 10 mg/kg orally): 1.50 ± 0.224; 2 hs after the irradiation, Rate for inhibition ([5]; 10 mg/kg orally): 43.8; 3 hs after the irradiation, Average ± standard error ([5]; 10 mg/kg orally): 2.50 ± 0.224; 3 hs after the irradiation, Rate for inhibition ([5]; 10 mg/kg orally): 11.7; 5 hs after the irradiation, Average ± standard error ([5]; 10 mg/kg orally): 2.50 ± 0.224; 5 hs after the irradiation, Rate for inhibition ([5]; 10 mg/kg orally): 11.7; inhibition effect for ultraviolet erythema compared with IM and DF [5]: equal inhibition effect for ultraviolet erythema to that of IM and DF
15 | CC(=O)OC(C)OC(=O)Cc1ccccc1Nc1c(Cl)cccc1Cl (stereo not shown) [Compound 18, 1-(Acetoxy)ethyl-2-(2,6-dichloroanilino)-phenylacetate] | 20 | 295 | 96.1 | 30 | anti-inflammatory activity compared with DF [1]: almost equal anti-inflammatory activity to DF
16 | C/C=C/C(=O)OCOC(=O)Cc1ccccc1Nc1c(Cl)cccc1Cl [Compound 13, Crotonoyloxymethyl-2-(2,6-dichloroanilino)-phenylacetate] | < 30 | 400 | 89.7 | 30 | 
17 | CC(C)=CC(=O)OCCOC(=O)Cc1ccccc1Nc1c(Cl)cccc1Cl [Compound 17, 2-(3,3-Dimethylacryloyloxy)ethyl-2-(2,6-dichloroanilino)phenylacetate] | 30 | 400 | 78.4 | 30 | 
18 | COc1ccc2c(c1)c(CC(=O)OC(C)OC(C)=O)c(C)n2C(=O)c1ccc(Cl)cc1 (stereo not shown) [Compound 8, 1-(Acetoxy)ethyl[1-(p-chlorobenzoyl)-5-methoxy-2-methyl-3-indolyl]acetate] | 6 | 65 | 99.8 | 20 | 
